According to patent US20220313656A1, “NEW CLASS OF ANTIBIOTICS HAVING LOW MIC-VALUES TOWARDS DIFFERENT STRAINS OF BACTERIA” (priority 2019, published 2022):
Like-named read-outs stand apart in the source and are kept apart here.

How the values were obtained:
Assay in all cases: MIC, serial dilution method (CLSI)
S. aureus CC398 = assay type: cell-based, Staphylococcus aureus
Method: (§1) These inoculums were each in diluted 1:100 in Müller Hinton (MH) broth (Sigma, Copenhagen, Denmark). From the diluted inoculums 100 μl was transferred to each well in a 96-well plate and mixed with the compound to be MIC determined. The plate was incubated for 24 hours at 37° C. (without shaking). The MIC value was determined as the lowest concentration in which no bacterial growth could be visually detected. All MIC determinations were done in duplicates. […] Since all derivatives are new, no control strains (with reference MIC values) were available.

S. aureus USA300 = assay type: cell-based, Staphylococcus aureus
Method: as §1

E. faecalis = assay type: cell-based, Enterococcus faecalis
Method: as §1

E. coli APEC O2 = assay type: cell-based, Escherichia coli
Method: as §1

[1] = system: Staphylococus pseudintermedius; assay type: cell-based, Staphylococcus pseudintermedius
Method: as §1

E. faecium = assay type: cell-based, Enterococcus faecium
Method: as §1

Bacillus cereus = assay type: cell-based
Method: as §1

Listeria monocytogenes = assay type: cell-based
Method: as §1

Salmonella enteritidis = assay type: cell-based
Method: as §1

Streptococcus equi = assay type: cell-based
Method: as §1

[2] = Staphylococcus aureus, MRSA, 24 h, read-out: MIC
[3] = Staphylococcus aureus, USA300, 24 h, read-out: MIC
[4] = Enterococcus faecalis, 24 h, read-out: MIC
[5] = Escherichia coli, APECO2, 24 h, read-out: MIC
[6] = Staphylococcus pseudintermedius, 24 h, read-out: MIC
[7] = Enterococcus faecium, 24 h, read-out: MIC
[8] = Salmonella enterica, ENTERITIDIS, 24 h, read-out: MIC
[9] = S. aureus CC398 (MRSA strain), MH broth, 24 hours at 37° C., set to 256 if growth at […]
[10] = S. aureus USA300, MH broth, 24 hours at 37° C., set to 256 if growth at […]
[11] = E. faecalis, MH broth, 24 hours at 37° C., set to 256 if growth at […]
[12] = E. coli APEC O2, MH broth, 24 hours at 37° C., set to 256 if growth at […]
[13] = Staphylococus pseudintermedius, MH broth, 24 hours at 37° C., set to 256 if growth at […]
[14] = E. faecium, MH broth, 24 hours at 37° C., set to 256 if growth at […]
[15] = MH broth, 24 hours at 37° C., set to 256 if growth at […]
[16] = Salmonella enteritidis, MH broth, 24 hours at 37° C., set to 256 if growth at […]

| SMILES | MIC (S. aureus CC398; [2]) | MIC (S. aureus USA300; [3]) | MIC (E. faecalis; [4]) | MIC (E. coli APEC O2; [5]) | MIC [1, 6] | MIC (E. faecium; [7]) | MIC (Bacillus cereus; 24 h, read-out: MIC) | MIC (Listeria monocytogenes; 24 h, read-out: MIC) | MIC (Salmonella enteritidis; [8]) | MIC (Streptococcus equi; 24 h, read-out: MIC) | MIC (S. aureus CC398; [9]) | MIC (S. aureus USA300; [10]) | MIC (E. faecalis; [11]) | MIC (E. coli APEC O2; [12]) | MIC [1, 13] | MIC (E. faecium; [14]) | MIC (Bacillus cereus; [15]) | MIC (Listeria monocytogenes; [15]) | MIC (Salmonella enteritidis; [16]) | MIC (Streptococcus equi; [15]) |
| --- | --- | --- | --- | --- | --- | --- | --- | --- | --- | --- | --- | --- | --- | --- | --- | --- | --- | --- | --- | --- |
| CC[N+](C)(C)C(C)CN1c2ccccc2Sc2ccccc21.[Br-] (centres unmarked) [Compound S14, N-ethyl-N,N-dimethyl-1-(10H-phenothiazin-10-yl)propan-2-aminium bromide] | 64 µg/mL | 128 µg/mL | 256 µg/mL | 256 µg/mL | 32 µg/mL | 128 µg/mL | 256 µg/mL | 32 µg/mL | 256 µg/mL | 32 µg/mL |  |  |  |  |  |  |  |  |  |  |
| CCCCC[N+](C)(C)CC/C=C1/c2ccccc2Sc2ccc(Cl)cc21.[Br-] [Compound S38, (Z)—N-(3-(2-chloro-9H-thioxanthen-9-ylidene)propyl)-N,N-dimethylpentan-1-aminium bromide] | 4 µg/mL | 4 µg/mL | 16 µg/mL | 64 µg/mL | 2 µg/mL | 16 µg/mL | 8 µg/mL | 8 µg/mL | 64 µg/mL | 2 µg/mL |  |  |  |  |  |  |  |  |  |  |
| CCOC(=O)CC[N+](C)(C)CCCN1c2ccccc2Sc2ccc(Cl)cc21 [Chlorpromazine 3-Ethoxy-3-oxo-1-propyl] |  |  |  |  |  |  |  |  |  |  | 64 µg/mL | 64 µg/mL | 64 µg/mL | 128 µg/mL | 32 µg/mL | 32 µg/mL | 128 µg/mL | 64 µg/mL | 64 µg/mL | 32 µg/mL |
| C[N+](C)(CCCN1c2ccccc2Sc2ccc(Cl)cc21)Cc1ccccc1 [Chlorpromazine Benzyl] |  |  |  |  |  |  |  |  |  |  | 4 µg/mL | 8 µg/mL | 16 µg/mL | 64 µg/mL | 2 µg/mL | 16 µg/mL | 4 µg/mL | 8 µg/mL | 64 µg/mL | 2 µg/mL |
| CCCCCCCCCCCC[N+]1(C)CCCCC1CCN1c2ccccc2Sc2ccc(SC)cc21.[Br-] (centres unmarked) [Compound S29, 1-dodecyl-1-methyl-2-(2-(2-(methylthio)-10H-phenothiazin-10-yl)ethyl)piperidin-1-ium bromide] | 2 µg/mL | 4 µg/mL | 4 µg/mL | 64 µg/mL | 2 µg/mL | 2 µg/mL | 2 µg/mL | 2 µg/mL | 64 µg/mL | 2 µg/mL |  |  |  |  |  |  |  |  |  |  |
